As a reminder, the ED50 is the dose at which the effect has come halfway, by size or by number of responders. One may read the IC50 as the concentration that inhibits the measured activity by half. In general, inhibition refers to the share of the control response that was lost under treatment. High values mean strong suppression, low ones little suppression.

Among the data in ChEMBL document CHEMBL1128244, “Synthesis, structure-activity relationships, and pharmacological evaluation of pyrrolo[3,2,1-ij]quinoline derivatives: potent histamine and platelet activating factor antagonism and 5-lipoxygenase inhibitory properties. Potential therapeutic application in asthma” (J Med Chem, 1995) are ED50, IC50 and inhibition values, retold here.

Assay [1] concerns Cavia porcellus. Kind of assay: Ability to inhibit histamine phase of antigen-induced bronchoconstriction in vivo in pulmonary function assays in which Guinea pigs were dosed orally 5 hours prior to test. The settings on record: po. Format: functional.
A further assay is filed under the species Oryctolagus cuniculus. The assay is described as follows: Test against PAF-induced aggregation of rabbit platelets in vitro. Format: functional.
The subject of assay [2] is Rattus norvegicus. The assay is described as follows: Antiallergic activity in the rat PCA assay following oral administration 1 hour before antigen challenge. Five animals were used in this experiment. It is filed as functional.
For assay [3], the species on record is Cavia porcellus. Kind of assay: Ability to inhibit histamine-induced contractions of isolated guinea pig ileum. Format: functional.
Assay [4] deals with T1, Polyunsaturated fatty acid 5-lipoxygenase (Homo sapiens) (UniProt P09917).
T1 sequence (whole entry): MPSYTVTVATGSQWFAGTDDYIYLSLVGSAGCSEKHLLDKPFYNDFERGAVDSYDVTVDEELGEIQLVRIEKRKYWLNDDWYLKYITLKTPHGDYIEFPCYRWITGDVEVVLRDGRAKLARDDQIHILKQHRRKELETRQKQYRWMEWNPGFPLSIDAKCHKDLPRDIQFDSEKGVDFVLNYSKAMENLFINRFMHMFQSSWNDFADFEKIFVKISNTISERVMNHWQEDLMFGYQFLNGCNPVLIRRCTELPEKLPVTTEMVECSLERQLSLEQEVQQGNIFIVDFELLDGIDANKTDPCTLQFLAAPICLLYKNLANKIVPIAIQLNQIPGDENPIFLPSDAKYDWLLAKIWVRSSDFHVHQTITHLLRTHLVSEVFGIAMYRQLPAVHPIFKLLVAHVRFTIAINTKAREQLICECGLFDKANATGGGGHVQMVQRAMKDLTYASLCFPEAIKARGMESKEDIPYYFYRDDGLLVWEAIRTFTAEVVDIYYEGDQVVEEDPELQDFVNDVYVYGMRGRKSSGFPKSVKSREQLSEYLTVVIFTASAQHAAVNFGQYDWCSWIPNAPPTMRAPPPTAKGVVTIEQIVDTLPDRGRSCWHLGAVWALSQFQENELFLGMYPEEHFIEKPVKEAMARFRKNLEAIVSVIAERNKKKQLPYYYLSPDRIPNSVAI
Kind of assay: (§1) Inhibitory activity uM. The following applies: Cavia porcellus; concentration not given here.

Assay [5] has as its system Cavia porcellus. Kind of assay: Ability to inhibit histamine phase of platelet activating factor (PAF)-induced bronchoconstriction in vivo in pulmonary function assays in which Guinea pigs were dosed orally 5 hours prior to test. Format: functional. The following applies: po.
The species named for assay [6] is Rattus norvegicus. The assay is described as follows: Inhibition of cutaneous histamine reaction in rats. Format: functional.
In assay [7] the target is T1, Polyunsaturated fatty acid 5-lipoxygenase (Homo sapiens). The description is as §1. The following applies: Cavia porcellus; concentration not given here. Format: functional.
The target is the same in assay [8]. The assay is described as follows: Inhibitory activity against partially-purified Guinea pig PMN 5-lipoxygenase at 10 uM. The following applies: Cavia porcellus, target entry is the homologue from another species.
The species named for assay [9] is Cavia porcellus. The assay is described as follows: Ability to inhibit histamine-induced contractions of isolated guinea pig ileum at 10e-6 M; Not active. It is filed as functional.
The test system of assay [10] is Cavia porcellus. Kind of assay: Ability to inhibit histamine phase of antigen-induced bronchoconstriction in vivo in pulmonary function assays in which Guinea pigs were dosed orally 5 hours prior to test at 10 uM/kg; Not active. Format: functional, organism-based.

Each structure is given as a SMILES string. Calls of active or inactive are those of the source. The rule behind the calls is not given here. Bounds are passed on as bounds.

Consider `CCCCC1CCc2cc(O)cc3c(CCN4CCN(c5cc(C)ccn5)CC4)c(C)n1c23` (stereo not drawn), for which the ED50 turned out to be 1.9 µmol/kg with Cavia porcellus [1], 0.9 µmol/kg in the assay on Rattus norvegicus [2], 2.1 µmol/kg in the assay on Cavia porcellus [5] and 2.8 µmol/kg in the assay listed under Rattus norvegicus [6]. Also, the IC50 in the assay listed under Oryctolagus cuniculus was found to be 2000 nM; in the assay listed under Cavia porcellus [3], 260 nM. For the same compound, the inhibition in assay [4] worked out at 100%.

On to `Cc1ccnc(N2CCN(CCc3c(C)n4c5c(cc(N)cc35)CCC4)CC2)c1`, for which the 50% inhibitory concentration (IC50) in the assay listed under Oryctolagus cuniculus is 84000 nM; in the assay listed under Cavia porcellus [3], 80 nM. Further, in the assay filed under Rattus norvegicus [6], the ED50 stood at 2.5 µmol/kg. In [7], this compound showed an inhibition of 64%.

In the case of `CN1CCCC(n2nc(Cc3ccc(Cl)cc3)c3ccccc3c2=O)CC1` (stereo not drawn) [AZELASTINE], the IC50 was more than 100000 nM in the assay listed under Oryctolagus cuniculus and 20 nM in the assay filed under Cavia porcellus [3]. Besides, the ED50 in the assay on Rattus norvegicus [2] worked out at 7 µmol/kg; in the assay listed under Rattus norvegicus [6], 3.3 µmol/kg.

In the case of `CN1CCC(=C2c3ccccc3CC(=O)c3sccc32)CC1` [KETOTIFEN], the figures for the ED50 with Cavia porcellus [1], in the assay with Rattus norvegicus [2] and in the assay listed under Rattus norvegicus [6] were 0.31 µmol/kg, 0.44 µmol/kg and 0.16 µmol/kg, respectively. Besides, the IC50 in the assay listed under Oryctolagus cuniculus was more than 100000 nM; in the assay filed under Cavia porcellus [3], 6.4 nM.

In the case of `Cc1ccnc(N2CCN(CCc3c(C)n4c5c(cc(C(=O)C(C)C)cc35)CCC4)CC2)c1`, the IC50 in the assay filed under Oryctolagus cuniculus came to 1900 nM; in the assay listed under Cavia porcellus [3] it was 37 nM. The inhibition in [8] was determined as 36%. The compound also had an ED50 in the assay filed under Rattus norvegicus [6] of 2.9 µmol/kg.

Consider `O=C(c1ccccc1)c1cccc(NC(=O)c2ccn3c2CS[C@@H]3c2cccnc2)c1` [TULOPAFANT], for which the IC50 entry in the assay filed under Cavia porcellus [9] is “Not Active”. Besides, the ED50 result with Cavia porcellus [10] is “inactive”. The compound further had an ED50 in the assay with Cavia porcellus [5] of 5.5 µmol/kg.

Turning to `CC(c1cc2ccccc2s1)N(O)C(N)=O` (stereo not drawn), the ED50 entry in the assay with Cavia porcellus [10] was “inactive”.
